Source: paper PMC4684281, “Antitumor Effects and Mechanism of Novel Emodin Rhamnoside Derivatives against Human Cancer Cells In Vitro” (PLoS ONE, 2015)

Test system: Cyto C, caspase-3 and caspase-9 proteins in HepG2 cells
Assay: Western blot analysis of apoptotic proteins
Format: cell-based, Human
Conditions: HepG2, compared to control group
Description: HepG2 cells were inoculated, cultured and harvested as described previously. Afterwards, the experiment was performed on ice. The harvested cell pellet was washed with cold PBS before being resuspended in 300μL cytosol lysis buffer through vortex. Then cells of all samples were lysed by sonication method on the ice using the ultrasonic cell disruptor (100 W for 30s×4 times). Total protein of each sample was measured by Bradford assay using protein quantification reagents from Bio-Rad. All samples were added 2×loading buffer before analyzing on 12% gels by SDS-PAGE. Then the proteins were transferred to nitrocellulose membranes by electro-blotting. The membranes were blocked in 1% bovine serum albumin (BSA) or 5% milk solution at room temperature for 30min, followed by incubation with the primary antibody against rabbit (Univ-bio, China) at 4°C overnight. The membranes were then washed three times with 1×TBST, each time last for 5 mins. The membranes were then incubated with the secondary antibodies for 3 h at 4°C, followed by washing with 1×TBST as described previously. Finally, the immuno-reactive bands were detected and documented using an enhanced chemiluminescent Western blotting system (Thermo-scientific, USA) on a Versa Doc imaging system.

CC(=O)O[C@@H]1[C@@H](O[C@@H]2O[C@@H](C)[C@H](O)[C@@H](OC(C)=O)[C@H]2OC(C)=O)[C@H](C)O[C@@H](Oc2cc(O)c3c(c2)C(=O)c2cc(C)cc(O)c2C3=O)[C@@H]1OC(C)=O [S-8, 3-(2”,3”-Di-O-acetyl-α-L-rhamnopyranosyl-(1→4)-2’,3’-di-O-acetyl-α-L-rhamnopyranosyl)-emodin]
Expression levels of Cyto C, caspase-3 and caspase-9 proteins (western-blot): three proteins expression increased at a concentration-dependent manner
